The text below walks through data of article PMC7143549, “Anticancer Activities of Meroterpenoids Isolated from the Brown Alga Cystoseira usneoides against the Human Colon Cancer Cells HT-29” (Foods, 2020).

Assay [1] deals with normal human colonic epithelial cells CCD 841 CoN. Put plainly: Sulforhodamine B (SRB) cell viability assay, CCD 841 CoN. It counts as cell-based. The settings on record: normal colon cells, 72 h of treatment, mean ± SE of three experiments, read-out: IC50 CCD841 CoN. The procedure:
(§1) Cell viability was quantified using the Sulforhodamine B assay described by Skehan et al.. Cells were plated with a density of 5 × 10^3 (HT-29) and 1 × 10^4 (CCD 841 CoN) cells/well and allowed to attach at 37 °C in an atmosphere with 5% CO2. After 24 h, the AMTs dissolved in DMSO were added to the cells (final concentrations of 10, 20, 30, and 50 µg/mL and less than 0.05% of DMSO) and the plates were incubated for 72 h. Then, the cells were fixed by adding 50 μL of TCA (50%) to each well and the plates were maintained for 1 h at 4 °C. The plates were washed five times with deionized water, air-dried, and stained for 30 min at room temperature with 100 μL of 0.4% (w/v) SRB prepared in 1% (v/v) acetic acid. The plates were rinsed quickly five times with 1% acetic acid to remove unbound dye, followed by air-drying. The bound dye was solubilized in 2 mM Tris base (100 μL/well) for 5 min. Optical densities were read on a microplate reader (Spectrophotometer LabsystemsMultiskan EX, λ 492 nm). Three independent assays were conducted, each one in duplicate. A standard curve was constructed for each experiment and used for converting the measured optical density values into numbers of viable cells/well. The inhibition rate was used to evaluate the cell viability and its algorithm was the following formula: ((ODcontrol − ODtreatment)/ODcontrol) × 100; OD, optical density. The OD492 for control cells was taken as 100% viability. The half maximal inhibitory concentration (IC50) was calculated. The selectivity index (SI) of each compound was calculated as IC50 of the compound against the CCD 841 CoN normal cell line/IC50 of the same compound against the HT-29 cancer cell line.

A further assay concerns p-ERK1/2 in HT-29 cells. Put plainly: Western blot of phosphorylated ERK1/2. The settings on record: 24 h; 10 and 20 μg/mL. The format is cell-based, human. The procedure: (§2) Cells were cultured to 80% confluence at 37 °C. After 24 h of treatment with the compounds (10 and 20 µg/mL for compounds 1, 2, 5, 6, 7, and 8, and 30 and 60 µg/mL for compounds 3 and 4), HT-29 cells were rinsed twice with ice-cold PBS, and then lysed immediately in lysis buffer (250 mM NaCl, 50 mM Tris (pH 7.5), 0.5 mM EDTA, 5 mM EGTA, 8 mM MgCl2, 1 mM PMSF, 0.01 mg/mL pepstatin A, 0.01 mg/mL leupeptin, 0.01 mg/mL aprotinin, 1% Triton X-100). After centrifugation at 12,000 g for 3 min at 4°C to separate the cellular debris, the supernatant was collected and stored at −80°C until use. The protein concentrations were determined using Bio-Rad Protein Assay (BioRad, Richmond, CA, USA), according to the manufacturer’s instructions.
(§3) Equal protein content (50 μg) samples of cell lysates were separated on 10% SDS–polyacrylamide gel and transferred to polyvinylidene difluoride membranes (Hybond-P, Amershan Biosciences, Little Chalfont, UK). The membranes were blocked with 5% (w/v) non-fat dry milk in Tris-buffered saline containing 0.1% Tween-20 buffer (pH 7.4) (TBST) for 1 h at room temperature and incubated with agitation with specific antibodies: anti-pERK1/2 (Cell Signaling; 1:1000), anti-pJNK (Cell Signaling; 1:1000), anti-pAKT (Cell Signaling; 1:1000), anti-β-actin (Sigma-Aldrich; 1:500). Membranes were incubated overnight at 4°C with gentle shaking. The secondary antibody was a peroxidase-conjugated goat anti-mouse or -rabbit antibody (1:10,000; DakoCytomation, Carpinteria, CA, USA). After washing the membrane three times in TBST buffer (10 min), the signals were detected using an enhanced chemiluminescence light-detecting kit (Super-Signal West Pico Chemiluminescent Substrate, Pierce, IL, USA), according to the manufacturer’s instructions and exposed to an X-ray film (GE Healthcare Ltd., Amersham, UK). The protein band densities were analyzed and quantified with a Scientific Imaging Systems (Biophotonics ImageJ Analysis Software, National Institute of Mental Health, Bethesda, MD, USA). β-actin was used to confirm the equal loading and transfer of proteins.
Background: In western blotting, separated proteins are transferred to a membrane and probed.

For assay [2], the system named is HT-29 colon cancer cells. Put plainly: Annexin V-FITC/PI flow cytometry apoptosis induction assay. It counts as cell-based, human. As to conditions: 24 h; for necrosis (dead cells): 30 μg/mL. The protocol: Quantitative assessment of apoptosis was performed by flow cytometry using an Annexin V-FITC Apoptosis Detection Kit. Briefly, 1 × 10^6 HT-29 cells were seeded per well in six-well plates and incubated for 24 h, followed by the addition of the AMTs dissolved in DMSO (final concentrations of 10, 20, and 30 µg/mL for compounds 1, 2, 5, 6, 7, and 8, and 30, 60, and 90 µg/mL for compounds 3 and 4, and less than 0.05% DMSO) and incubation for 24 h. Curcumin (final concentrations of 50 and 75 μM) was used as positive control. The cells were then washed, harvested with trypsin, and centrifuged at 1500 rpm (5 min, 25 °C). The pellet was resuspended in 195 µL of 1 × Annexin buffer and then stained with 5 μL of Annexin V-FITC and 10 μL of PI for 10 min at room temperature, in the dark. To this mixture 200 μL of 1 × Annexin buffer was added before analysis using a Cytomics FC500 flow cytometer (Beckman Coulter, Indianapolis, IN, USA). Following a gating strategy, flow cytometry plots of size (FS) and complexity (SS) of the HT-29 cells were previously established for the elaboration of a measurement protocol. The normal healthy cells, early apoptosis, late apoptosis, and necrotic populations were represented by annexin V-negative/PI-negative population, annexin V-positive/PI-negative, annexin V-positive/PI-positive and annexin-negative/PI-positive cells, respectively. A total of 10,000 cellular events in each sample were analyzed using DML program.
On the technique in general: A flow cytometer gives signals particle by particle.

For assay [3], the system named is HT-29 cells. Kind of assay: Wound migration assay. The format is cell-based, human. The settings on record: 24 h, wound-healing; for inhibition at 10 µg/mL: Homo sapiens, HT-29, 10 μg/mL, read-out: inhibition of cell migration. The protocol:
For cell migration assay, HT-29 cells were seeded in six-well culture plates and allowed to grow to 80%–90% confluence for the experiment. After aspirating the medium, similar sized wounds were performed in the monolayer cells using a sterile micropipette tip. Wounded monolayer cells were washed three times with PBS to remove cell debris and then replaced with complete McCoy’s medium. HT-29 cells were treated with the AMTs (10 µg/mL for compounds 1, 2, 5, 6, 7, and 8, and 30 µg/mL for compounds 3 and 4) and incubated for 24h. For the image analysis of the effect of each treatment on cell migration, the wounded area was photographed immediately after scratching and after 24 h. The level of cell migration was determined using NIH Image software (Image J 1.44g, Wayne Rasband, USA) and then expressed as a percentage of wound closure area using the equation: Migration rate (%) = [(wound area at 0 h − wound area at 24 h)/wound area at 0 h] × 100%.

Assay [4] relates to HT-29 colon cancer cells. Put plainly: Cell cycle analysis by flow cytometry (PI). The format is cell-based, human. The settings on record: 24 h; 30 μg/mL of 1, 2, 5, 6, 7, 8 and 90 μg/mL of 3 and 4 (Figure 4B). The protocol: HT-29 cells (1 × 10^6 cells/well) were seeded in six-well plates and incubated for 24 h, followed by treatment with AMTs dissolved in DMSO (final concentrations of 10, 20, and 30 µg/mL for compounds 1, 2, 5, 6, 7, and 8, and 30, 60, and 90 µg/mL for compounds 3 and 4, and always below 0.05% DMSO) and 24 h of additional incubation. Colchicine (final concentration of 0.2 μg/mL) was used as positive control. The cells were then washed, harvested with trypsin, and centrifuged at 1500 rpm (5 min, 25 °C). The resulting pellet was fixed with ice-cold 70% ethanol (1 mL/10^6 cells) and the samples were stored at −4°C overnight. After fixation, the cells were washed with PBS, stained with PBS containing 5 mg/mL of RNase A, and incubated for 48 h at 4 °C. Subsequently, 50 μL of 0.1 mg/mL of IP was added and incubated for 1 h at 4 °C. The relative DNA content per cell was analyzed using a Cytomics FC500 flow cytometer (Beckman Coulter, Indianapolis, IN, USA). The data acquisition was performed with the DML program and the analysis of the acquired data with the CXP Software (Beckman Coulter, Indianapolis, IN, USA).

In assay [5] the test system is HT-29 human colon carcinoma cells. Kind of assay: Sulforhodamine B (SRB) cell viability assay, HT-29. As to conditions: for IC50: Homo sapiens, HT-29, 72 h; for Selectivity Index (SI): IC50 for normal cells CCD 841 CoN / IC50 for cancer cells HT-29. It counts as cell-based. The procedure: as §1
A further assay relates to p-AKT in HT-29 cells. Put plainly: Western blot of phosphorylated AKT. It counts as cell-based, human. The settings on record: 24 h; 10 and 20 μg/mL for 1, 2, 5, 6, 7, 8; 30 and 60 μg/mL for 3 and 4. The procedure:
as §2, §3

The test system of a further assay is p-JNK in HT-29 cells. Put plainly: Western blot of phosphorylated JNK. It counts as cell-based, human. The settings on record: 24 h; 10 and 20 μg/mL for 1, 2, 5, 6, 7, 8; 30 and 60 μg/mL for 3 and 4. The procedure: as §2, §3
Assay [6] concerns HT-29 cells. As to conditions: cited from earlier work.
Setting [7] is: colon cancer cells, 72 h of treatment, SRB, mean ± SE of three experiments.

≈ marks a conversion by molar mass, not a printed value. Where two headings read alike, the source gives them in different places.

Usually IC50 stands for the midpoint of a concentration-inhibition curve. With `COc1c(C)cc(O)cc1C/C=C(\C)CC(=O)/C=C(\C)CCCC(C)C(=O)/C=C/C(C)(C)O` (centres unmarked) [Compound 6, amentadione-1′-methyl ether], the IC50 in assay [1] is 48.4 ± 3.84 µg/mL (≈ 106 µM); in [5] (setting [7]), 10.7 ± 0.27 µg/mL (≈ 23.5 µM). The “p-ERK1/2 level vs control” value in the assay with p-ERK1/2 in HT-29 cells is listed as “significantly reduced”. Moreover, the “necrosis (dead cells)” value with HT-29 colon cancer cells [2] came out at 59.55%. In addition, the inhibition at 10 µg/mL in the assay with HT-29 cells [3] is 45.3%. For the same compound, in the assay with HT-29 colon cancer cells [4], the “accumulation of cells at the G2/M phase (cell cycle arrest, words)” value (shortened to “accumulation of cells at the G2/M phase”) is “not significant”. In addition, the “Selectivity Index (SI)” value in [5] came out at 4.51. In the assay with p-AKT in HT-29 cells, the “expression of p-AKT protein vs control” value is on record as “no significant reduction”.
Turning to `COc1c(C)cc(O)cc1C/C=C(\C)CC(=O)/C=C(/C)CCCC(C)=O` [Compound 4, cystomexicone A], in the assay on p-JNK in HT-29 cells, the “phospho-JNK level vs control” value is on record as “decreased phosphorylation”. For the same compound, in assay [1], the IC50 turned out to be 61.9 ± 2.37 µg/mL (≈ 173 µM). In addition, in the assay with HT-29 colon cancer cells [2] (4 tested at 30-90 μg/mL, 7 at 10-30 μg/mL), the “induction of apoptosis or death of HT-29 cells” value is listed as “did not induce neither apoptosis nor death”. Moreover, in the assay on HT-29 cells [3] (30 μg/mL (methods, Figure 5B)), the “inhibition of cell migration” value is “no significant effects”. Further, the “accumulation of cells at the G2/M phase” value in the assay with HT-29 colon cancer cells [4] is on record as “significant”. In assay [5] (setting [7]), the IC50 worked out at 34.3 µg/mL (≈ 95.7 µM) and the “IC50 HT-29” value is 36.86 ± 2.86 µg/mL (≈ 103 µM). Moreover, the “Selectivity Index (SI)” value in assay [5] is recorded as 1.68. Besides, the “expression of p-AKT protein vs control” value in the assay with p-AKT in HT-29 cells is on record as “significantly downregulated”.
In the case of zonaquinone acetate, the IC50 in the assay with HT-29 cells [6] (read-out: IC50 growth of HT-29 cells) is 17.3 µM. In the assay with HT-29 cells [6] (value in brackets, converted from μM), the “IC50 growth of HT-29 cells” value was 7.8 µg/mL.
Regarding `COc1c(C)cc(O)cc1C/C=C(\C)CC(=O)/C=C(/C)CCCC(C)C(=O)/C=C/C(C)(C)O` (stereo not drawn) [Compound 5, 6-cis-amentadione-1′-methyl ether], in the assay on p-JNK in HT-29 cells, the “phospho-JNK level vs control” value was “decreased phosphorylation”. In addition, the IC50 worked out at 41 ± 9.8 µg/mL (≈ 89.7 µM) in assay [1] and 7.83 ± 0.05 µg/mL (≈ 17.1 µM) in assay [5] (setting [7]). Also, the “p-ERK1/2 level vs control” value in the assay on p-ERK1/2 in HT-29 cells was “significantly reduced”. The “necrosis (dead cells)” value with HT-29 colon cancer cells [2] is recorded as 72.75%. Also, the inhibition at 10 µg/mL in the assay with HT-29 cells [3] was determined as 36.2%. Moreover, the “accumulation of cells at the G2/M phase” value in the assay with HT-29 colon cancer cells [4] is listed as “significant”. Also, in assay [5], the “Selectivity Index (SI)” value is recorded as 5.23. In the assay on p-AKT in HT-29 cells, the “expression of p-AKT protein vs control” value is recorded as “no significant reduction”.
Consider sargachromanol R, for which the “IC50 growth of HT-29 cells” value in the assay with HT-29 cells [6] was 3.4 µg/mL.
